The source of these data is patent publication US20260207637A1, “MODULATOR FOR PROMOTING BINDING OF BUTYROPHILIN 3A1/2A1” (priority 2023, published 2026).

For orientation: fraction unbound means free concentration divided by total concentration. A high value points to much free substance.

Series [1] in a line: Stability experiment of compounds in human whole blood. The series is classed as in vitro ADME. The settings on record: whole blood (sodium heparin), 37° C., 0-4 h, read-out: T1/2 in human whole blood (converted). How it is done:
• (1) An appropriate amount of blank whole blood was added into an EP tube containing sodium heparin, then added the working solution of the test substance to a final concentration of 1 μM, and mixed by vortex; • (2) The sample was placed in a water bath at 37° C. with two parallel experiments; for one experiment, the time points were 0 h, 0.5 h, 1 h, 2 h, and 4 h; another experiment was performed to obtain the absolute zero point, which was compared with the 0 h point. • (3) An appropriate amount of sample was taken out from the incubation system, to which 300 μL of internal standard precipitant was added for protein precipitation; (4) all samples were centrifuged at 6° C. for 10 min (15700×g). • (5) 150 μL of the supernatant was taken out, to which 150 μL of water was added, which was mixed by vortex, and analyzed by LC-MS/MS. The stability data of compounds in human whole blood is as follows: […]

Series [2] is described as follows: Stability experiment of compounds in human liver microsomes. It counts as in vitro ADME. To be noted: NADPH, 37° C., read-out: T1/2 in human liver microsomes. The protocol: Compounds were prepared as a 10 mM stock solution with DMSO and then diluted with 80% acetonitrile-water to a 100 μM working solution for later use. Human liver microsomes were obtained from BIOIVT.
(1) The liver microsomes taken out from the refrigerator were placed in a 37° C. water bath thermostatic oscillator, pre-incubated for 5 min, and thawed for later use.
(2) A certain amount of NADPH was weighed and added to an appropriate amount of magnesium chloride solution to dissolve into a 2 mM solution for later use.
(3) A mixed solution of the warm incubation system (containing no β-NADPH) was prepared according to the proportions in the “composition of the experimental warm incubation system” above and dispensed at 165 μL/tubes (45 μL/tube for the negative control group and 120 μL/tube for the positive control group).
(4) For the sample at 0 min: 200 μL of internal standard working precipitant was added and then 30 μL of NADPH solution was added.
(5) For other samples: 135 μL NADPH solution was added to initiate the reaction (45 μL magnesium chloride solution was added for the negative control group), and incubated in a 37° C. water bath for 5, 15, 30, and 60 min (incubated in a 37° C. water bath for 60 min for the negative control group), then 60 μL was sampled and added to 200 µL of precipitant containing internal standard.
(6) For the positive control group: 90 L NADPH solution was added to initiate the reaction, and incubated in a 37° C. water bath for 5, 15 min, then 60 μL was sampled and added to 200 μL of precipitant containing internal standard.
(7) For neat sample: 297 μL of water was pipetted into a tube, 1000 μL of internal standard working solution was added, and 3 μL of test compound working solution was added.
(8) All samples were vortexed and centrifuged.
(9) 150 μL of the supernatant was sampled and added to 150 μL of water, mixed uniformly by vortex, and analyzed by LC-MS/MS. The half-life stability data of human liver microsomes is as follows: […]
A general note: Liver microsomes are vesicles of endoplasmic reticulum, rich in cytochrome P450 enzymes.

Series [3] is described as follows: Binding rate test of compounds and human plasma protein (equilibrium dialysis). To be noted: human plasma, equilibrium dialysis 6 hours, 37° C. It counts as in vitro ADME. How it is done:
(1) The dry dialysis membrane was soaked with ultrapure water for 20 min or more than 20 min, then soaked with 20% ethanol for 30 min to 1 h, and the membrane was rinsed with ultrapure water 2-3 times. Finally, the membrane was soaked with ultrapure water for 20 minutes for later use.
(2) The frozen plasma was thawed in a water bath at 37° C.
(3) The test compound was diluted into plasma preheated to 37° C. at a final concentration of 1 μM, and the final concentration of the control compound warfarin in plasma was 2 μM.
(4) The pre-treated dialysis membrane was assembled into the dialysis plate according to the specification of the product, and 120 μL of the receiving solution (100 mM phosphate buffer solution added 0.002% Tween 80) was added to one side of the permeable membrane in each dialysis well.
(5) 20 μL of each of the final solutions of the test compound and the control compound were added into a 96-well sample plate in duplicate, and the TO sample was obtained, which was stored in a refrigerator at −20° C. Another 20 μL of the above final solution was added to the other side of the membrane in the dialysis device in duplicate, and incubated at 37° C. by shaking at constant temperature for 6 hours.
(6) After 6 hours of incubation, 20 L of each of the dialyzed receiving solution and the administered plasma were weighed to obtain sample B and sample A in duplicate. The corresponding volume of corresponding blank plasma or receiving solution was added to sample B and sample A, respectively, so that the volume ratio of plasma to buffer in each sample well was 1:1. 300 μL of acetonitrile solution containing internal standard was added to all sample wells, and centrifuged after mixed uniformly.
(7) 200 μL of ultrapure water (150 μL for the control group) was added into the corresponding sample wells of the 96-well sample plate, and 300 μL of the supernatant (150 μL for the control group) was added into the sample well; the samples were analyzed after mixed uniformly. The free percentage and recovery rate of the compound in plasma were calculated using the following formula: Plasma protein binding rate (%)=1−free percentage, wherein free percentage (%)=CB/CA
wherein CB is the concentration of the compound in the receiving solution after equilibrium dialysis, CA is the concentration of the compound in the drug-dosed plasma after equilibrium dialysis, and CT0 is the initial concentration of the compound in plasma.
A general note: In equilibrium dialysis only unbound substance equilibrates across the membrane.

Series [4] can be described thus: Pharmacokinetic test in cynomolgus monkeys. The series is classed as in vivo. To be noted: IV 2 mg/kg. How it is done:
The control compound 2 and compound 19 were formulated into 1 mg/mL solution in 10% DMSO/90% PBS. Cynomolgus monkeys were obtained from Suzhou Leo Bio Technology Co., Ltd. The control compound 2 and compound 19 were administered intravenously at 2 mg/kg, respectively. The blood collected before administration was recorded as zero point. Then 1 mL of blood was collected at eight time points: 0.083, 0.15, 0.5, 1.0 2.0, 4.0, 8.0, and 24.0, respectively. 1 mL of the collected whole blood was placed in a labeled EDTA-2K anticoagulant tube. After gently inverting up and down to fully mix the anticoagulant (EDTA-2K) with the blood, it was immediately placed in wet ice and centrifuged within 30 minutes to separate the plasma. The centrifugation conditions were set to 4° C., 2200 g, and 6 min. The plasma separated after centrifugation was placed in a labeled EP tube, and the content of compound 19 and control compound 2 in the plasma samples at different time points were detected and analyzed. There were 3 male cynomolgus monkeys in each group.

On to `C/C(=C\CCP(=O)(N[C@@H](C)C(=O)OCc1ccccc1)Oc1ccccc1)CO` (stereo partly shown) [Control compound 2, reference compound], for which, in series [1], the half-life at 1 μM was 2 h. The half-life in series [2] was found to be 1.4 min. The fraction unbound at 6 h, 1 μM in series [3] was 0.027. In series [4] (average), this compound came in with an AUC0-t/AUC0-inf of 0.974. Also, the concentration at 5 min in series [4] (male, cynomolgus monkey, plasma, 5 min, read-out: Plasma concentration of the unchanged drug) was found to be 299 ng/mL. In addition, in series [4] (male, cynomolgus monkey, plasma, 9 min, read-out: Plasma concentration of the unchanged drug), the concentration at 9 min amounted to 49 ng/mL. In series [4] (male, cynomolgus monkey, plasma, 30 min, read-out: Plasma concentration of the unchanged drug), the concentration at 30 min turned out to be 1 ng/mL. Also, in series [4] (male, cynomolgus monkey, plasma, 1 h, read-out: Plasma concentration of the unchanged drug), the concentration at 1 h amounted to 3 ng/mL. Moreover, the AUC(0-t) in series [4] (male, cynomolgus monkey, plasma, average, read-out: AUC0-t (AUClast)) came out at 194 ng·h/mL. Besides, the clearance in series [4] (male, cynomolgus monkey, plasma, average, read-out: Cl (Cl_obs)) worked out at 418 mL/min/kg.
